# Reference: US8957106B2, “Iminosugar treatment of tumors” (The Chancellor, Masters and Scholars of the University of …, priority 2007, dated 2015)
# Legend:
# MNT-1 melanoma cells = assay: MTS cell viability assay, MNT-1; format: cell-based; conditions: Homo sapiens, MNT-1, 24 h, read-out: IC50 (concentration reducing number of viable cells by 50%)
# Description: (§1) Cells were cultured at indicated densities for 24 h, medium was removed and the incubation was continued in a fresh culture medium containing various GC2 or DTIC concentrations. In control experiments, cells were grown in a culture medium containing GC2 buffer.
# (§2) The standard […] (MTS)-3-(4,5-dimethylthiazol-2-yl)-5-(3-carboxymethoxyphenyl)-2-(4-sulphophenyl)-2H-tetrazolium inner salt solution assay was performed in order to examine the cytotoxic/cytostatic effect of GC2 on melanoma cells. Briefly, 7.5×10^3 cells were seeded in 96-well microtiter plates (Nunc). After an overnight incubation, serial dilutions of GC2 or DTIC were added in triplicate to a final volume of 100 μl. The blank was represented by a culture medium without cells containing the highest GC2 or DTIC concentration. After 24 h of incubation 20 μl MTS was added to each well and all samples were incubated for 3 h at 37° C. An absorbance of each well was read at 450 nm in a microplate reader. A percentage of cell viability was calculated considering that 100% cell viability was represented by an absorbance of untreated samples […]. Alternatively, the number of viable cells was determined by Trypan blue exclusion test. Melanoma cells treated with GC2 were trypsinized and cells negative for blue staining (viable cells) were counted using a hemocytometer. […]
# B16F10 melanoma cells = assay: MTS cell viability assay, B16F10; format: cell-based, murine; conditions: Mus musculus, B16-F10, B16F10, 24 h, read-out: IC50 (concentration reducing number of viable cells by 50%)
# Description: as §1, §2
# B16D2 melanoma cells = assay: MTS cell viability assay, B16D2; format: cell-based; conditions: B16D2, 24 h, read-out: IC50 (concentration reducing number of viable cells by 50%)
# Description: as §1, §2
# B16F10 cells = assay: Cell cycle distribution analysis (PI, flow cytometry), B16F10; format: cell-based, murine; conditions: B16F10, 6 μM, 24 h
# Description: Cell cycle analysis in melanoma cells treated with GC2 was performed by determining DNA content using propidium iodide (PI) staining. PI intercalates into the major groove of double stranded DNA and produces a highly fluorescent adduct that can be excited at 488 nm and with a broad emission centered at 600 nm, see e.g. Krishan A. J. Cell. Biol. 66, 188, 1975. Melanoma cells (20×10^4) were cultured in 25 cm^2 tissue culture flasks for 24 h, followed by a further incubation for indicated time periods with 6 μM GC2. After treatment, adherent cells were trypsinized and a number of viable cells was determined by trypan blue exclusion. […] cells were re-suspended in 200 μl FACS buffer (2% FCS in PBS) and fixed with 600 μl absolute methanol, dropwise added under gentle vortexing, for at least 2 h at −20° C. Fixed cells were washed with FACS buffer, centrifuged for 5 min at 1500 rpm, at 4° C., and incubated for 30 min, in the dark, at room temperature (RT) with 200 μl PI staining solution in 3.8 mM sodium citrate (10 μl RNaze 10 μg/ml previously boiled for 5 min and 1 μl PI 10 mg/ml). The staining solution was removed by centrifugation and the cell pellet was re-suspended in 200 μl FACS buffer. Samples were analyzed for DNA content using a FACScan™ using CellQuest™ software (Becton Dickinson, San Jose, Calif.). […]
# [1] = test system: actin network in SKMel28 and MelJuSo cells; assay: Actin staining with Alexa Fluor 594 phalloidin, fluorescence microscopy; format: cell-based; conditions: 6 μM, 3 h
# Description: Tumor cells were cultured 24 h on cover glasses, treated with GC2, and processed as described in Negroiu, G., et al. J. Biol. Chem. 278, 27035-27042, 2003. The acidic vesicular compartments were detected following incubation of live cells GC2 treated with Lysotracker® Red (0.125 μl/ml culture medium) for 30 min at 37° C. Fixed cells were incubated with the following primary antibodies: mouse anti-EEA1 (1:100), human-CD107A (anti-Lamp1) (1:50), a mouse anti-α tubulin (1:200) followed by an appropriate Alexa Fluor® 488 conjugated secondary antibodies (1:400) or with Alexa Fluor® 594 phalloidin. Finally, nuclei of fixed cells were stained with 5 mM Hoechst dye 33342. Cells were washed three times with PBS and mounted in Vectashield® mounting medium.
# Whether tumor cell compartments and cytoskeletal elements are altered by GC2 treatment was analysed utilizing molecular markers for two main cell compartments: 1) EEA1 for early endosomes, which are accessed first by all endocytosed molecules and 2) Lamp-1 for lysosomes, the major degradative compartment. Actin filaments were labeled with Alexa Fluor® 594 phalloidin and microtubules with an anti-α-tubulin antibody; all samples were analyzed by fluorescence microscopy. […] Following GC2 treatment both endocytic markers were redistributed in large substructures detected also by phase contrast microscopy. […]
smiles,measurement,setting,value
"CC(=O)O.CCCCCCCCCN1[C@@H](CO)[C@@H](O)[C@H](O)[C@@H]1CCCCCCCC [GC2, (2S,3R,4R,5S)-3,4-dihydroxy-N-nonyl-5-octyl-2 hydroxymethylpyrrolidinium acetate]",IC50,MNT-1 melanoma cells,7 to 8 µM
same,IC50,B16F10 melanoma cells,7 to 8 µM
same,IC50,B16D2 melanoma cells,11 µM
same,number of cells in G2 phase,B16F10 cells; untreated 21.68%,16.96%
same,proportion of surviving cells in G0/G1 phase,B16F10 cells; untreated 45.42,53.74%
same,pattern of the fluorescent actin marker,[1],disrupted
